Test results taken from the NIST ThermoML archive (doi:10.1021/acs.jced.9b00283).

Assay: xn = mol fraction of the nth substance listed
Conditions: 100 kPa, Liquid, Pycnometric method

OCCCCO [1,4-butanediol] + CCn1cc[n+](C)c1.F[B-](F)(F)F
Conditions | molar volume [m3/mol]
298.15 K, x1 = 0.19 | 0.0001368
298.15 K, x1 = 0.978 | 9.18e-05
303.15 K, x1 = 0.24 | 0.0001346
303.15 K, x1 = 0.962 | 9.26e-05
308.15 K, x1 = 0.251 | 0.0001345
308.15 K, x1 = 0.957 | 9.33e-05
313.15 K, x1 = 0.326 | 0.0001286
313.15 K, x1 = 0.944 | 9.04e-05

OCCCCO [1,4-butanediol] + CCn1cc[n+](C)c1.O=S(=O)([N-]S(=O)(=O)C(F)(F)F)C(F)(F)F
Conditions | molar volume [m3/mol]
298.15 K, x1 = 0.177 | 0.0002253
298.15 K, x1 = 0.971 | 9.23e-05
303.15 K, x1 = 0.189 | 0.0002241
303.15 K, x1 = 0.968 | 9.31e-05
308.15 K, x1 = 0.217 | 0.00022
308.15 K, x1 = 0.962 | 9.36e-05
313.15 K, x1 = 0.233 | 0.0002181
313.15 K, x1 = 0.958 | 9.29e-05

OCCCCCO [1,5-pentanediol] + CCn1cc[n+](C)c1.F[B-](F)(F)F
Conditions | molar volume [m3/mol]
303.15 K, x1 = 0.129 | 0.0001423
303.15 K, x1 = 0.982 | 0.0001069
308.15 K, x1 = 0.151 | 0.0001416
308.15 K, x1 = 0.977 | 0.0001075
313.15 K, x1 = 0.183 | 0.0001412
313.15 K, x1 = 0.97 | 0.0001062
318.15 K, x1 = 0.231 | 0.0001381
318.15 K, x1 = 0.969 | 0.0001064

OCCCCCO [1,5-pentanediol] + CCn1cc[n+](C)c1.O=S(=O)([N-]S(=O)(=O)C(F)(F)F)C(F)(F)F
Conditions | molar volume [m3/mol]
298.15 K, x1 = 0.142 | 0.0002297
298.15 K, x1 = 0.995 | 0.0001075
303.15 K, x1 = 0.16 | 0.0002253
303.15 K, x1 = 0.992 | 0.0001086
308.15 K, x1 = 0.175 | 0.0002251
308.15 K, x1 = 0.987 | 0.0001088
313.15 K, x1 = 0.193 | 0.0002239
313.15 K, x1 = 0.982 | 0.0001095

OCCCO [propan-1,3-diol] + CCn1cc[n+](C)c1.O=S(=O)([N-]S(=O)(=O)C(F)(F)F)C(F)(F)F
Conditions | molar volume [m3/mol]
298.15 K, x1 = 0.208 | 0.0002153
298.15 K, x1 = 0.977 | 7.48e-05
303.15 K, x1 = 0.226 | 0.0002124
303.15 K, x1 = 0.974 | 7.55e-05
308.15 K, x1 = 0.234 | 0.0002114
308.15 K, x1 = 0.971 | 7.61e-05
313.15 K, x1 = 0.259 | 0.0002063
313.15 K, x1 = 0.971 | 7.6e-05
